Test results published in ChEMBL document CHEMBL4627303, “Design, synthesis and evaluation of flurbiprofen-clioquinol hybrids as multitarget-directed ligands against Alzheimer's disease” (Bioorg Med Chem, 2020).
Calls of active or inactive are those of the source. The calls are words filed in the database; no cut-off is given here.

How the values were obtained:
BV-2 [1] = test: Anti-neuroinflammatory activity in mouse BV2 cells assessed as inhibition of LPS-induced NO production preincubated for 30 mins followed by LPS stimulation measured after 24 hrs by Griess reagent based assay; type: functional, cell-based
BV-2 [2] = test: Anti-neuroinflammatory activity in mouse BV2 cells assessed as inhibition of LPS-induced TNFalpha production at 10 uM preincubated for 30 mins followed by LPS stimulation measured after 24 hrs by ELISA relative to control; type: functional
BV-2 [3] = test: Effect on nitric oxide production in mouse BV2 cells at 0.5 to 10 uM measured after 30 mins by Griess reagent based […]; type: ADME, cell-based; settings: bv-2, 0.5 h
[4] = Antioxidant activity assessed as AAPH-induced radical scavenging activity by measuring trolox equivalents for oxygen radical absorbance capacity measured every minute for 90 mins by ORAC-FL assay; type: functional
BV-2 [5] = test: Anti-neuroinflammatory activity in mouse BV2 cells assessed as inhibition of LPS-induced TNFalpha production at 0.5 uM preincubated for 30 mins followed by LPS stimulation measured after 24 hrs by ELISA relative to control; type: functional
[6] = Metal chelating activity assessed as Zn2+-compound complex formation at 37.5 uM measured after 2 hrs in presence of 37.5 uM ZnCl2 by UV-vis spectrophotometric analysis
[7] = biological target: Amyloid-beta precursor protein (Homo sapiens) (UniProt P05067); test: Inhibition of Cu2+-induced HFIP-pretreated amyloid beta (1 to 42) (unknown origin) aggregation at 25 uM measured after 24 hrs by thioflavin-T fluorescence assay relative to control
Sequence of Amyloid-beta precursor protein (Homo sapiens) (P05067 whole entry): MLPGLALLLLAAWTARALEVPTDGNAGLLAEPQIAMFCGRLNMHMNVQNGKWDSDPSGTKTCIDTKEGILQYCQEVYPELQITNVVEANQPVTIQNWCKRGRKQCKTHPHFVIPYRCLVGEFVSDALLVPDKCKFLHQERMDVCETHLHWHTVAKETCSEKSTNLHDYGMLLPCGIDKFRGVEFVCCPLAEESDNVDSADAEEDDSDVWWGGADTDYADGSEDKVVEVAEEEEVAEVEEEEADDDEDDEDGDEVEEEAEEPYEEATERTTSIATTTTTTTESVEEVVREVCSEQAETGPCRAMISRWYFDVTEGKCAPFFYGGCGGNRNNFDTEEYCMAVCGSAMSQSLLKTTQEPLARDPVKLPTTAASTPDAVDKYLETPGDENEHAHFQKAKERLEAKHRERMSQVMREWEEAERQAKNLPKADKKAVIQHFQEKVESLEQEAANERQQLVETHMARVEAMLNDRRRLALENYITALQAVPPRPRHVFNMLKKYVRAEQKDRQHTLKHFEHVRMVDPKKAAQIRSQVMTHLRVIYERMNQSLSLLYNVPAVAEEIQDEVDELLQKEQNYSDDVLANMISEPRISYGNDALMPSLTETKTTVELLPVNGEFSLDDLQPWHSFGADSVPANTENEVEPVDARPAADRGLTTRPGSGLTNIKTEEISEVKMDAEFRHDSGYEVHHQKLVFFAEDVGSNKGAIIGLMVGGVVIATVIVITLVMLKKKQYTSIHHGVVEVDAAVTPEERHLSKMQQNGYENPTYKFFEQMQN

BV-2 [8] = test: Effect on TNFalpha production in mouse BV2 cells at 10 uM measured after 30 mins by ELISA; type: ADME, cell-based; settings: bv-2, 0.5 h
[9] = biological target: T1, Amine oxidase [flavin-containing] B (Homo sapiens, UniProt P27338); test: Inhibition of recombinant human MAOB expressed in baculovirus infected in BTI cells using kynuramine as substrate after 30 mins by fluorescence based assay; type: cell-based
T1 sequence (P27338 whole entry): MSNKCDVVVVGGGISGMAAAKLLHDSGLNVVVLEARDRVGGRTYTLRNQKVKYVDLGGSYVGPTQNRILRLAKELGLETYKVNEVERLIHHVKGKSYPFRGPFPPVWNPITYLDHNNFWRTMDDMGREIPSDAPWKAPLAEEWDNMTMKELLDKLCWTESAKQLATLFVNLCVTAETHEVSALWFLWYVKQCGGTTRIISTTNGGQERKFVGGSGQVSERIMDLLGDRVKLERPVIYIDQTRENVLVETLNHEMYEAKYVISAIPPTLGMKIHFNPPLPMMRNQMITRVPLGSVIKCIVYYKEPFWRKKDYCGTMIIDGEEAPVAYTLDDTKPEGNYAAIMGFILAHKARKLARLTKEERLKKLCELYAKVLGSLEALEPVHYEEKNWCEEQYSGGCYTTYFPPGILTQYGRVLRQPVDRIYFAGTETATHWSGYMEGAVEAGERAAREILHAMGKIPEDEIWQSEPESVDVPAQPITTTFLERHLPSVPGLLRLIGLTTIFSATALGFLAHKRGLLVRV

BV-2 [10] = test: Cytotoxicity against mouse BV2 cells assessed as reduction in cell viability at 0.5 to 10 uM measured after 30 mins by MTT assay; type: cell-based; settings: bv-2, 0.5 h
PC-12 [11] = test: Neuroprotective activity against H2O2-induced cytotoxicity in rat PC12 cells assessed as cell viability at 10 uM preincubated for 2 hrs followed by H2O2 addition and measured after 24 hrs by MTT assay (reference value: 48.3%); type: functional; settings: read-out: Activity
[12] = biological target: T2, Amine oxidase [flavin-containing] A (Homo sapiens, UniProt P21397); test: Inhibition of recombinant human MAOA expressed in baculovirus infected in BTI cells at 10 uM using kynuramine as substrate after 30 mins by fluorescence based assay relative to control; settings: 0.5 h
T2 sequence (P21397 whole entry): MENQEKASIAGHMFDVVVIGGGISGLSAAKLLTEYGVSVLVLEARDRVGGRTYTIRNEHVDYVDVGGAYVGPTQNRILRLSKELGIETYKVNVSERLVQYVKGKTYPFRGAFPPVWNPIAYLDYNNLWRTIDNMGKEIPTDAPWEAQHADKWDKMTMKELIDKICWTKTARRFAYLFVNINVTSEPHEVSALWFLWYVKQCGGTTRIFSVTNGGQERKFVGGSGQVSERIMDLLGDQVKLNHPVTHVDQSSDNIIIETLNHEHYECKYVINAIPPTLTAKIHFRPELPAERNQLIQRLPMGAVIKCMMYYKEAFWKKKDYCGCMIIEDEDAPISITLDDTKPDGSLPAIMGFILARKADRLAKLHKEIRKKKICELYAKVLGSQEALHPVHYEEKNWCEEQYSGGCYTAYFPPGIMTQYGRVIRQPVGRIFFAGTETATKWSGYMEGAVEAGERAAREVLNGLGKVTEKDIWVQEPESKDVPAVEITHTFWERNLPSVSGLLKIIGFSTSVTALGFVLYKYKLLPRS

BV-2 [13] = test: Anti-neuroinflammatory activity in mouse BV2 cells assessed as inhibition of LPS-induced TNFalpha production preincubated for 30 mins followed by LPS stimulation measured after 24 hrs by ELISA; type: functional, cell-based
[14] = Metal chelating activity assessed as Cu2+-compound complex formation at 37.5 uM measured after 2 hrs in presence of 37.5 uM CuCl2 by UV-Vis spectrophotometric analysis
BV-2 [15] = test: Anti-neuroinflammatory activity in mouse BV2 cells assessed as inhibition of LPS-induced NO production at 2.5 uM preincubated for 30 mins followed by LPS stimulation measured after 24 hrs by Griess reagent based assay relative to control; type: functional
[16] = biological target: Amyloid-beta precursor protein (Homo sapiens) (UniProt P05067); test: Inhibition of HFIP-pretreated amyloid beta (1 to 42) (unknown origin) self-aggregation at 25 uM after 24 hrs by thioflavin-T fluorescence assay relative to control
[17] = biological target: T1, Amine oxidase [flavin-containing] B; test: Inhibition of recombinant human MAOB expressed in baculovirus infected in BTI cells at 10 uM using kynuramine as substrate after 30 mins by fluorescence based assay relative to control; settings: 0.5 h
BV-2 [18] = test: Anti-neuroinflammatory activity in mouse BV2 cells assessed as inhibition of LPS-induced NO production at 10 uM preincubated for 30 mins followed by LPS stimulation measured after 24 hrs by Griess reagent based assay relative to control; type: functional
[19] = Effective permeability of the compound in PBS/EtOH buffer (7:3) at 100 ug/ml after 18 hrs by PAMPA-BBB assay; type: ADME; settings: read-out: Peff
BV-2 [20] = test: Anti-neuroinflammatory activity in mouse BV2 cells assessed as inhibition of LPS-induced TNFalpha production at 2.5 uM preincubated for 30 mins followed by LPS stimulation measured after 24 hrs by ELISA relative to control; type: functional
PC-12 [21] = test: Neuroprotective activity against H2O2-induced cytotoxicity in rat PC12 cells assessed as increase in cell viability preincubated for 2 hrs followed by H2O2 addition and measured after 24 hrs by MTT assay; type: functional, cell-based
[22] = Metal chelating activity assessed as Fe2+-compound complex formation at 37.5 uM measured after 2 hrs in presence of 37.5 uM FeSO4 by UV-vis spectrophotometric analysis
[23] = Metal chelating activity assessed as compound-Cu2+ complex stoichiometry ratio of 1:1 at 37.5 uM in presence of CuCl2 after 15 mins by UV-visible spectrophotometric analysis
PC-12 [24] = test: Neuroprotective activity against H2O2-induced cytotoxicity in rat PC12 cells assessed as cell viability at 1 uM preincubated for 2 hrs followed by H2O2 addition and measured after 24 hrs by MTT assay (reference value: 48.3%); type: functional; settings: read-out: Activity
[25] = biological target: Amyloid-beta precursor protein (Homo sapiens) (UniProt P05067); test: Disaggregation of self-induced amyloid beta (1 to 42) (unknown origin) preformed fibrils at 25 uM measured after 24 hrs by thioflavin-T fluorescence assay relative to control
[26] = Metal chelating activity assessed as Al3+-compound complex formation at 37.5 uM measured after 2 hrs in presence of 37.5 uM AlCl3 by UV-vis spectrophotometric analysis
BV-2 [27] = test: Cytotoxicity against LPS-induced mouse BV2 cells assessed as reduction in cell viability at 0.5 to 10 uM preincubated for 30 mins followed by LPS stimulation and measured after 24 hrs by MTT assay; type: cell-based; settings: bv-2, 24 h
BV-2 [28] = test: Anti-neuroinflammatory activity in mouse BV2 cells assessed as inhibition of LPS-induced NO production at 0.5 uM preincubated for 30 mins followed by LPS stimulation measured after 24 hrs by Griess reagent based assay relative to control; type: functional

| Compound | inhibition (BV-2 [1]) | inhibition at 10 µM (BV-2 [2]) [%] | Activity (BV-2 [3]) | Activity [4] [µMequiv/µM] | inhibition at 0.5 µM (BV-2 [5]) [%] | Activity [6] | inhibition [7] [%] | Activity (BV-2 [8]) | IC50 [9] [µM] | Activity (BV-2 [10]) | viability at 10 µM (PC-12 [11]) [%] | inhibition at 10 µM [12] [%] | inhibition (BV-2 [13]) | inhibition at 2.5 µM (BV-2 [15]) [%] | inhibition [16] [%] | inhibition at 10 µM [17] [%] | inhibition at 10 µM (BV-2 [18]) [%] | inhibition at 2.5 µM (BV-2 [20]) [%] | Activity [25] [%] | Activity (BV-2 [27]) | further results |
| --- | --- | --- | --- | --- | --- | --- | --- | --- | --- | --- | --- | --- | --- | --- | --- | --- | --- | --- | --- | --- | --- |
| COC(=O)C(C)c1ccc(-c2ccc(NCc3cc(N(C)C)ccc3O)cc2)c(F)c1 (configuration not stated) | Dose-dependent effect | 76.5 | Non-Toxic | 2.44 | 35.8 | inactive | 84.3 | Non-Toxic | 10.3 | Non-Toxic | 81.6 | 26.3 | Dose-dependent effect | 46.7 | 96.3 | 52.4 | 57.2 | 53.1 | 91.1 | Non-Toxic | Activity [14]: Active; Papp at 18 h, 100 ug/ml [19]: 5.48 ×10⁻⁶ cm/s; Activity (PC-12 [21]): Dose-dependent effect; Activity [22]: inactive; Activity [23]: Active; viability at 1 µM (PC-12 [24]): 70.2%; Activity [26]: Active; inhibition at 0.5 µM (BV-2 [28]): 32.4% |
| CC(C(=O)O)c1ccc(-c2ccccc2)c(F)c1 (configuration not stated) [FLURBIPROFEN] |  | 31.2 | Non-Toxic | 0.17 |  |  | 7.29 |  |  | Non-Toxic |  |  |  | 12.5 |  |  | 26.2 | 10.2 | 9.28 | Non-Toxic |  |
| COC(=O)C(C)c1ccc(-c2ccccc2NCc2cc(N(C)C)ccc2O)c(F)c1 (configuration not stated) | Dose-dependent effect | 68.1 | Non-Toxic | 1.91 | 35 | inactive | 87.3 | Non-Toxic |  | Non-Toxic | 80 | 35.4 | Dose-dependent effect | 43.4 | 96.1 | 34.6 | 52.4 | 49.1 | 91.1 | Non-Toxic | Activity [14]: Active; Papp at 18 h, 100 ug/ml [19]: 4.09 ×10⁻⁶ cm/s; Activity (PC-12 [21]): Dose-dependent effect; Activity [22]: inactive; Activity [23]: Active; viability at 1 µM (PC-12 [24]): 68.6%; Activity [26]: Active; inhibition at 0.5 µM (BV-2 [28]): 26.9% |
| COC(=O)C(C)c1ccc(-c2ccc(NCc3nc(C)c(C)nc3C)cc2)c(F)c1 (configuration not stated) |  |  |  | 1.69 |  |  | 22.5 |  | 15.1 |  |  | 20.4 |  |  | 27.5 | 42.5 |  |  | 18.3 |  |  |
